From ChEMBL document CHEMBL3885861, “Open TG-GATES”

Species on record: Rattus norvegicus
Test: Open TG-GATES - Regimen: Daily Repeat
Format: toxicity, organism-based, Sprague-Dawley
Design: regimen Daily Repeat, gender Male, age 6 weeks
Conditions: in vivo, po, 0 mg/kg, […], route gavage, dose level Control; for KIDNEY_L / KIDNEY_R / KIDNEY_TOTAL: tissue Kidney; for LIVER: tissue Liver; for ALP / ALT / AST / BUN / CRE / Ca / Cl / DBIL / GLC / IP / K / LDH / Na / PL / RALB / TBIL / TC / TG / TP / gamma-GTP: tissue Plasma

COC(=O)C1=C(C)NC(C)=C(C(=O)OC)C1c1ccccc1[N+](=O)[O-] [NIFEDIPINE]
Hb (tissue Blood, time 28 day): 13.4 g/dL | Ht (tissue Blood, time 28 day): 41.3% | Lym (tissue Blood, time 28 day): 80.2% | MCH (tissue Blood, time 28 day): 20.8 pg | MCHC (tissue Blood, time 28 day): 32.5% | MCV (tissue Blood, time 28 day): 64.2 fL | Mono (tissue Blood, time 28 day): 3.2% | Neu (tissue Blood, time 28 day): 14% | PT (tissue Blood, time 28 day): 14.5 s | Plat (tissue Blood, time 28 day): 122.9 x10_4/uL | RBC (tissue Blood, time 28 day): 643.8 x10_4/ul | Ret (tissue Blood, time 28 day): 7.5% | WBC (tissue Blood, time 28 day): 94.6 x10_2/uL | KIDNEY_L (time 7 day): 1 g | KIDNEY_R (time 7 day): 1 g | KIDNEY_TOTAL (time 7 day): 2.1 g | KIDNEY_L (time 14 day): 1.2 g | KIDNEY_R (time 14 day): 1.2 g | KIDNEY_TOTAL (time 14 day): 2.5 g | KIDNEY_L (time 28 day): 1.4 g | KIDNEY_R (time 28 day): 1.4 g | KIDNEY_TOTAL (time 28 day): 2.7 g | LIVER (time 7 day): 12.1 g | LIVER (time 14 day): 13.8 g | LIVER (time 28 day): 17.4 g | ALP (time 7 day): 1580.4 IU/L | ALT (time 7 day): 42.6 IU/L | AST (time 7 day): 68.6 IU/L | BUN (time 7 day): 15.4 mg/dL | CRE (time 7 day): 0.2 mg/dL | Ca (time 7 day): 11 mg/dL | Cl (time 7 day): 106.4 meq/L | DBIL (time 7 day): 0.014 mg/dL | GLC (time 7 day): 183.6 mg/dL | IP (time 7 day): 7.4 mg/dL | K (time 7 day): 4 meq/L | LDH (time 7 day): 98.2 IU/L | Na (time 7 day): 145.2 meq/L | PL (time 7 day): 159.2 mg/dL | RALB (time 7 day): 2.7 g/dL | TBIL (time 7 day): 0.026 mg/dL | TC (time 7 day): 82.4 mg/dL | TG (time 7 day): 111.8 mg/dL | TP (time 7 day): 5.9 g/dL | gamma-GTP (time 7 day): 1 IU/L | ALP (time 14 day): 1854.8 IU/L | ALT (time 14 day): 41.8 IU/L | AST (time 14 day): 65 IU/L | BUN (time 14 day): 16 mg/dL | CRE (time 14 day): 0.2 mg/dL | Cl (time 14 day): 105.6 meq/L | DBIL (time 14 day): 0.012 mg/dL | GLC (time 14 day): 184 mg/dL | IP (time 14 day): 7.3 mg/dL | K (time 14 day): 4 meq/L | LDH (time 14 day): 57.8 IU/L | Na (time 14 day): 144.2 meq/L | PL (time 14 day): 158.8 mg/dL | RALB (time 14 day): 2.8 g/dL | TBIL (time 14 day): 0.024 mg/dL | TC (time 14 day): 75.4 mg/dL | TG (time 14 day): 150.8 mg/dL | TP (time 14 day): 6 g/dL | gamma-GTP (time 14 day): 1 IU/L | ALP (time 28 day): 1068.6 IU/L | ALT (time 28 day): 36.2 IU/L | AST (time 28 day): 63 IU/L | BUN (time 28 day): 17.4 mg/dL | CRE (time 28 day): 0.3 mg/dL | Ca (time 28 day): 10.7 mg/dL | Cl (time 28 day): 104.4 meq/L | DBIL (time 28 day): 0.01 mg/dL | GLC (time 28 day): 192.8 mg/dL | IP (time 28 day): 6.1 mg/dL | K (time 28 day): 3.9 meq/L | LDH (time 28 day): 66 IU/L | Na (time 28 day): 143.8 meq/L | PL (time 28 day): 161.6 mg/dL | RALB (time 28 day): 2.8 g/dL | TBIL (time 28 day): 0.026 mg/dL | TC (time 28 day): 75 mg/dL | TG (time 28 day): 175.2 mg/dL | TP (time 28 day): 6.3 g/dL
